Holding throughout (assay type): functional, organism-based
For experiment [1], the system named is Aspergillus niger. The experiment is described as follows: Antimicrobial activity against Aspergillus niger ATCC 9642 at 200 ug/mL.
Experiment [2] has as its system Pseudomonas aeruginosa. The experiment is described as follows: Antimicrobial activity against Pseudomonas aeruginosa ATCC 15442 at 10 ug/mL.
Experiment [3] relates to Staphylococcus aureus. Briefly: Antimicrobial activity against Staphylococcus aureus ATCC 6538 at 1 ug/mL.
Experiment [4] deals with Pseudomonas aeruginosa. The experiment is described as follows: Antimicrobial activity against Pseudomonas aeruginosa ATCC 15442 at 1 ug/mL.
For experiment [5], the system named is Aspergillus niger. Briefly: Antimicrobial activity against Aspergillus niger ATCC 9642 at 1 ug/mL.
Experiment [6] relates to Aspergillus niger. The experiment is described as follows: Antimicrobial activity against Aspergillus niger ATCC 9642 at 100 ug/mL.
For experiment [7], the system named is Staphylococcus aureus. Briefly: Antimicrobial activity against Staphylococcus aureus ATCC 6538 at 10 ug/mL.
Experiment [8] concerns Saccharomyces cerevisiae. The experiment is described as follows: Antimicrobial activity against Saccharomyces cerevisiae ATCC 18824 at 100 ug/mL.
Experiment [9] has as its system Pseudomonas aeruginosa. Briefly: Antimicrobial activity against Pseudomonas aeruginosa ATCC 15442 at 200 ug/mL.
Experiment [10] relates to Staphylococcus aureus. Briefly: Antimicrobial activity against Staphylococcus aureus ATCC 6538 at 200 ug/mL.
In experiment [11] the test system is Saccharomyces cerevisiae. The experiment is described as follows: Antimicrobial activity against Saccharomyces cerevisiae ATCC 18824 at 200 ug/mL.
Experiment [12] concerns Pseudomonas aeruginosa. Briefly: Antimicrobial activity against Pseudomonas aeruginosa ATCC 15442 at 100 ug/mL.
The subject of experiment [13] is Saccharomyces cerevisiae. Briefly: Antimicrobial activity against Saccharomyces cerevisiae ATCC 18824 at 10 ug/mL.
Experiment [14] relates to Saccharomyces cerevisiae. Briefly: Antimicrobial activity against Saccharomyces cerevisiae ATCC 18824 at 1 ug/mL.
Experiment [15] concerns Aspergillus niger. Briefly: Antimicrobial activity against Aspergillus niger ATCC 9642 at 10 ug/mL.
The test system of experiment [16] is Staphylococcus aureus. Briefly: Antimicrobial activity against Staphylococcus aureus ATCC 6538 at 100 ug/mL.

Molecules are shown by their SMILES. Active and inactive are the calls of the source. The calls are words filed in the database; no cut-off is given here.

In the case of `C/C(=C\Cn1c[n+](C)c2ncnc(N)c21)CC[C@]1(C)[C@@H](C)CC[C@@]2(C)C(CO)=CCC[C@@H]12`, the outcome in the experiment with Aspergillus niger [1], in the experiment with Pseudomonas aeruginosa [2], with Staphylococcus aureus [3], with Pseudomonas aeruginosa [4], with Aspergillus niger [5] and in the experiment on Aspergillus niger [6] was inactive. The outcome with Staphylococcus aureus [7], in the experiment on Saccharomyces cerevisiae [8], with Pseudomonas aeruginosa [9], with Staphylococcus aureus [10], in the experiment on Saccharomyces cerevisiae [11] and with Pseudomonas aeruginosa [12] was inactive. In addition, the outcome in the experiment with Saccharomyces cerevisiae [13], in the experiment with Saccharomyces cerevisiae [14], in the experiment with Aspergillus niger [15] and with Staphylococcus aureus [16] was inactive.

On to `CC1=CCC[C@H]2[C@](C)(CC/C(C)=C/Cn3c[n+](C)c4ncnc(N)c43)[C@@H](C)CC[C@@]12C`, for which the result with Aspergillus niger [1], in the experiment on Pseudomonas aeruginosa [2], with Staphylococcus aureus [3], in the experiment with Pseudomonas aeruginosa [4], in the experiment on Aspergillus niger [5] and with Aspergillus niger [6] was inactive. Further, the result in the experiment with Staphylococcus aureus [7], with Saccharomyces cerevisiae [8], with Pseudomonas aeruginosa [9], in the experiment on Staphylococcus aureus [10], in the experiment with Saccharomyces cerevisiae [11] and with Pseudomonas aeruginosa [12] was inactive. Further, the result in the experiment with Saccharomyces cerevisiae [13], in the experiment on Saccharomyces cerevisiae [14], in the experiment on Aspergillus niger [15] and in the experiment on Staphylococcus aureus [16] was inactive.

For the compound `CC1=CCC[C@@H]2[C@@](C)(CC/C(C)=C/Cn3c[n+](C)c4ncnc(N)c43)[C@H](C)CC[C@@]12C`, the outcome in the experiment on Aspergillus niger [1], with Pseudomonas aeruginosa [9], in the experiment on Staphylococcus aureus [10] and in the experiment with Saccharomyces cerevisiae [11] was inactive. For the same compound, the result in the experiment on Saccharomyces cerevisiae [13] was Active.

As to `C=C1[C@H](O)CC[C@H]2[C@](C)(CC/C(C)=C/Cn3c[n+](C)c4ncnc(N)c43)[C@@H](C)CC[C@@]12C`, the result in the experiment on Saccharomyces cerevisiae [11] was Active.

On to `C/C(=C\Cn1c[n+](C)c2ncnc(N)c21)CC[C@]1(C)[C@@H](C)CC[C@@]2(C)C(COC(=O)c3ccc[nH]3)=CCC[C@@H]12`, for which the outcome in the experiment with Aspergillus niger [1], in the experiment on Pseudomonas aeruginosa [9], in the experiment with Staphylococcus aureus [10] and with Saccharomyces cerevisiae [11] was inactive. Moreover, in the experiment on Saccharomyces cerevisiae [13], the outcome was Active.

Regarding `CC1=CCC[C@H](C)[C@@]1(C)CC/C(C)=C/CC/C(C)=C/Cn1c[n+](C)c2ncnc(N)c21`, the result in the experiment on Aspergillus niger [6] and with Saccharomyces cerevisiae [13] was Active.

(Values after ChEMBL document CHEMBL1158667, “Agelasines H and I, 9-methyladenine-containing diterpenoids from an Agelas sponge” (J Nat Prod, 1998).)
